The text below walks through data of patent US20140087970A1, “SERINE BIOSYNTHESIS PATHWAY INHIBITION FOR TREATMENT OF CANCER” (Whitehead Institute for Biomedical Research, priority 2011, published 2014).

The assay has as its system cell lines with elevated PHGDH expression (BT-20, MDA-MB-468, HCC70, Hs578T and MT3). Description: Cell proliferation assay after lentiviral shRNA infection. Type of assay: cell-based, human. The conditions noted are these: media supplemented during PHGDH knockdown. As to the method:
For PHGDH or PSPH knockdown experiments, 10,000-20,000 MDA-MB-468, BT-20, HCC70, MCF-7, or MDA-MB-23 I cells were infected with shRNA-expressing lentiviruses of known titers at a multiplicity of infection of 2.5 to 5. Cells were cultured in 12-well plates and infected via a 30-minute spin at 2,250 RPM in a Beckman Coulter Allegra X-12R centrifuge with an SX4750 rotor and uPlate Carrier attachment followed by an overnight incubation in media containing polybrene. Eight days after infection the number of cells was determined using a Coulter Counter (Beckman) and used to calculate relative cell proliferation. Where indicated, standard RPMI media was supplemented with serine to concentrations 5-fold that of the serine already in the media. Where indicated, supplementation occurred at one and four days after lentiviral infection. For serine depletion experiments, cells were plated out as described above and the following day the standard culture medium was replaced with medium lacking serine or reconstituted with 1× serine. Dialyzed serum (3 kDa MWCO) was utilized in serine depletion experiments except in the case of MCF-10A cells, where standard 5% serum was utilized.

Turning to `COC(=O)C(N)CO` (centres unmarked) [methyl-serine-ester], the “effect of media supplementation on the PHGDH knockdown proliferation phenotype” value was “did not blunt the effects of the PHGDH knockdown”.

For the molecule `N[C@@H](CO)C(=O)O` [serine], the “effect of media supplementation on the PHGDH knockdown proliferation phenotype” value was “did not blunt the effects of the PHGDH knockdown”.
